Measured values published in patent US5885987A, “Phenylene derivatives” (Kowa Co., Ltd., priority 1996, dated 1999).

How the values were obtained:
[1] = biological target: T1, isolated guinea pig ileum (histamine) (Cavia porcellus, UniProt P31389); assay: Antihistaminic action (in vitro), inhibition of histamine-induced contraction of isolated ileum; format: cell-based; details: for inhibition at 10 µM: 10^-5 M, 30 minutes incubation, 37° C., read-out: Antihistaminic (%), contraction inhibition rate; for pD'2 (antihistaminic action): isolated guinea pig ileum, histamine, 30 min
T1 construct: An isolated guinea pig ileum was cut into about 2 cm lengths; from tissue; host or cells: isolated guinea pig ileum
T1 sequence (P31389 whole entry): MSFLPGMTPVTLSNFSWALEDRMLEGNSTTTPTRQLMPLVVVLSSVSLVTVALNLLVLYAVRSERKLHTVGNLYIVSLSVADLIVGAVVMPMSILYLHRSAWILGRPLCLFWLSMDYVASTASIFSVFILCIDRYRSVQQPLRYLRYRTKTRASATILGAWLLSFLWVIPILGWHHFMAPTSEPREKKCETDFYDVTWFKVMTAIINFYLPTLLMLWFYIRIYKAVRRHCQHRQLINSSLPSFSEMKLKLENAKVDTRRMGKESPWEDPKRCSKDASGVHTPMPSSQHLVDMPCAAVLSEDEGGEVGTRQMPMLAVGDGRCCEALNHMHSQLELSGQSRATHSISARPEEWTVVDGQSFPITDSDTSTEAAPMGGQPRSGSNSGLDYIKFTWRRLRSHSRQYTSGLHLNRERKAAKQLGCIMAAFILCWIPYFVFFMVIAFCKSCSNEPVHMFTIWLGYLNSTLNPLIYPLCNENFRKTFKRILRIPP
Method: (§1) Antihistaminic Action and Anti-LTD4 Action (In vitro Tests)
(§2) An isolated guinea pig ileum was cut into about 2 cm lengths. Each ileum piece was suspended in a 20-ml container filled with the Krebs buffer. An isotonic contractive response by histamine or leukotriene D4 was recorded on a recorder. The Krebs buffer was controlled at 37° C., through which a mixed gas (95%O2 -5%CO2) was bubbled. First, histamine or leukotriene D4 was added to an organ bath to measure its dose-response. After the ileum piece was washed several times with the buffer, a test compound (will be identified by its example number; this will apply likewise hereinafter) of a predetermined specific concentration was added. Subsequent to incubation for 30 minutes, the dose-response of histamine or leukotriene D4 was measured again. Incidentally, in Table 7, the values (%) indicate contraction inhibition rate at 10^-5 M, while the values in parentheses show pD'2 values in the case of antihistaminic action and IC50 values in the case of anti-LTD4 action.

H1 receptor = biological target: T2, H1 receptor (Cavia porcellus, UniProt P31389); assay: H1 receptor binding inhibition test ([^3 H]mepyramin, guinea pig cerebromembranous protein); details: for inhibition at 100 µM: a: 100 μM
T2 construct: guinea pig cerebromembranous protein; from tissue; host or cells: guinea pig cerebral (brain) membranes
T2 sequence (P31389 whole entry): as above
How it was run: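 [³H]Mepyramine binding to guinea pig brain membranes was stopped with ice-cold phosphate buffer and filtered, and bound radioactivity was measured by liquid scintillation. Nonspecific binding was defined with 10^-4 M R(-)dimethindene. IC50 came from concentration-response data and was converted to a dissociation constant by Cheng-Prusoff.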

leukotriene D4 = assay: Anti-LTD4 action in vivo, Evans Blue transudation in back skin after intracutaneous leukotriene D4; design: species or system male Hartley guinea pig; details: Cavia porcellus, po, 1 h; orally 10 mg/kg, one hour before; leukotriene D4 0.5 μg/ml, 0.1 ml intracutaneously; read-out: Anti-LTD4 action (%), inhibition rate
Method: (§3) Antihistaminic Action and Anti-LTD4 Action (In vivo Tests)
(§4) After the hair on the back of a male Hartley guinea pig was cut off, a test compound was orally administered at 10 mg/kg. One hour later, 5% Evans Blue solution was intravenously administered at 1 ml/kg and immediately after that, a 0.3 μg/ml solution of histamine and a 0.5 μg/ml solution of leukotriene D4 were intracutaneously administered each in an amount of 0.1 ml to the back. Thirty minutes later, the guinea pig was sacrificed under exsanguination, the skin was cut off, and the transudated color was quantitated by extraction. To a control, 0.5% CMC (carboxylmethylcellulose) was orally administered and the subsequent procedures were repeated likewise. From the difference in the amount of the transudated color between the control and the group administered with the test compound, an inhibition rate was calculated.

[2] = test system: isolated guinea pig ileum (leukotriene D4); assay: Anti-LTD4 action (in vitro), inhibition of leukotriene D4-induced contraction of isolated ileum; format: cell-based; details: Cavia porcellus; for inhibition at 10 µM: 0.5 h, 10^-5 M, 30 minutes incubation, 37° C., read-out: Anti-LTD4 action (%), contraction inhibition rate; for IC50: isolated guinea pig ileum, leukotriene D4
Method: as §1, §2

LTD4 receptor = biological target: T3, LTD4 receptor (Cavia porcellus, UniProt Q2NNR5); assay: LTD4 receptor binding inhibition test ([^3 H]leukotriene D4, guinea pig pulmomembranous protein); details: for Kd: read-out: LTD4 receptor, dissociation constant KD
T3 construct: guinea pig pulmomembranous protein; from tissue; host or cells: guinea pig lung membranes
T3 sequence (Q2NNR5 1-340): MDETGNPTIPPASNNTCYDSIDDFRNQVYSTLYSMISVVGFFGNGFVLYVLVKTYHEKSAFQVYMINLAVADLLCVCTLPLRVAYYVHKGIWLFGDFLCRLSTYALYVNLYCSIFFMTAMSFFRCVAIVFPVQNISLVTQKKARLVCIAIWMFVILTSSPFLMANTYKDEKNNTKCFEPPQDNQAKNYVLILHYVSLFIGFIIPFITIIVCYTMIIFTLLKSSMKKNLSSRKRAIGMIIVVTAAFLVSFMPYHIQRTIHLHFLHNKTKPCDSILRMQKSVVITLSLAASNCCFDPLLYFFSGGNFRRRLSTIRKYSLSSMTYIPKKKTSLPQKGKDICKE
How it was run: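 Filtration binding with [3H]LTD4 on guinea pig lung membranes; reaction stopped with ice-cold Tris-HCl/NaCl buffer (10 mM/100 mM, pH 7.5), bound radioactivity by scintillation counting. Nonspecific binding defined with 2 μM leukotriene D4. IC50 from dose-response, converted to dissociation constant by Cheng-Prusoff.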

histamine (H1) = assay: Antihistaminic (anti-H1) action in vivo, Evans Blue transudation in back skin after intracutaneous histamine; design: species or system male Hartley guinea pig; details: orally 10 mg/kg, one hour before; histamine 0.3 μg/ml, 0.1 ml intracutaneously
Method: as §3, §4

cortical edema = details: intravenous administration after occurrence of ischemia; cited from earlier work
[3] = read-out: H1 receptor (%), inhibition rate

Row | SMILES | inhibition at 10 µM [1] | inhibition at 10 µM (H1 receptor; b: 10 μM, read-out: H1 receptor (%), inhibition rate) | IC50 [2] | Kd (LTD4 receptor) | inhibition at 100 µM (H1 receptor; [3]) | inhibition at 10 µM (LTD4 receptor; b: 10 μM, read-out: LTD4 receptor (%), inhibition rate) | pD'2 (antihistaminic action) [1] | Kd (H1 receptor; read-out: H1 receptor, dissociation constant KD) | inhibition in vivo at 10 mg/kg (leukotriene D4) | inhibition at 10 µM [2] | Anti-H1 action (%), inhibition rate (histamine (H1)) | increase and aggravation of cortical edema (cortical edema)
1 | CC1(C)C(=O)Nc2cc(OCc3cccc(OCc4ccc5ccccc5n4)c3)ccc21 [Example 15] |  |  |  |  | 36% | 37% |  |  | 37% |  | 17% | 
2 | CC1(C)C(=O)Nc2c(OCc3cccc(OCc4ccc5ccccc5n4)c3)cccc21 [Example 17, 3,3-Dimethyl-7-[3-(2-quinolinylmethoxy)benzyloxy]-2,3-dihydro-1H-indol-2-one] | 100% |  | 1.5 µM | 0.202 µM | 40% |  | 5.35 |  | 21% | 96% | 19% | 
3 | O=C1CCc2ccc(OCc3ccc(OCc4ncc5ccccc5n4)cc3)cc2N1 [Example 35, 7-[4-(2-quinazolinylmethoxy)benzyloxy]-1,2,3,4-tetrahydroquinolin-2-one] | 16% |  | 1.7 µM | 0.209 µM |  |  |  | 87.9 µM | 11% | 87% |  | 
4 | O=C1CS(=O)(=O)c2cc(OCc3cccc(OCc4nc5ccccc5s4)c3)ccc2N1 [Example 78, 7-[3-(2-Benzothiazolylmethoxy)benzyloxy]-3,4-dihydro-2H-1,4-benzothiazin-3-one 1,1-dioxide] |  |  |  | 12.6 µM | 29% |  |  |  | 32% |  |  | 
5 | CCCc1c(OCC(O)COc2ccc3c(=O)cc(C(=O)O)oc3c2CCC)ccc(C(C)=O)c1O (stereo not shown) [FPL55712] |  |  |  |  |  |  |  |  |  |  |  | significantly inhibited

Now from value to molecule, other results behind:

Row | inhibition at 10 µM [1] | inhibition at 10 µM (H1 receptor; b: 10 μM, read-out: H1 receptor (%), inhibition rate) | IC50 [2] | Kd (LTD4 receptor) | inhibition at 100 µM (H1 receptor; [3]) | inhibition at 10 µM (LTD4 receptor; b: 10 μM, read-out: LTD4 receptor (%), inhibition rate) | pD'2 (antihistaminic action) [1] | Kd (H1 receptor; read-out: H1 receptor, dissociation constant KD) | SMILES | inhibition in vivo at 10 mg/kg (leukotriene D4) | inhibition at 10 µM [2] | Anti-H1 action (%), inhibition rate (histamine (H1)) | increase and aggravation of cortical edema (cortical edema)
6 | 37% | 18% | 0.46 µM | 0.0814 µM |  |  |  |  | O=C1CCc2cc(OCc3cccc(OCc4ccc5ccccc5n4)c3)ccc2N1 [Example 6] | 12% | 98% |  | 
7 |  |  |  | 0.0125 µM | 50% |  |  |  | O=C1CSc2cc(OCc3cccc(OCc4ccc5ccccc5n4)c3)ccc2N1 [Example 10, 7-[3-(2-Quinolinylmethoxy)benzyloxy]-3,4-dihydro-2H-1,4-benzothiazin-3-one] | 32% |  | 36% | 
8 |  |  |  | 0.2 µM | 32% |  |  |  | CC1(C)C(=O)Nc2c(OCc3ccc(OCc4ccc5ccccc5n4)cc3)cccc21 [Example 30, 3,3-Dimethyl-7-[4-(2-quinolinylmethoxy)benzyloxy]-2,3-dihydro-1H-indol-2-one] | 44% |  | 40% | 
9 | 65% |  | 0.13 µM | 0.0097 µM | 46% |  | 5.25 |  | O=C1CSc2cc(OCc3cccc(OCc4ncc5ccccc5n4)c3)ccc2N1 [Example 33, 7[3-(2-quinazolinylmethoxyl)benzyloxy]-3,4-dihydro-2H-1,4-benzothiazin-3-one] | 40% | 100% |  | 
